According to article PMC5883364 (Malaria Journal, 2018):

Assays:
[1] = tested on: P. falciparum 3D7 (chloroquine and mefloquine sensitive); parameters: method as in Lobo et al, 2016; details: strain 3D7; ref Lobo et al, 2016; read-out: P. falciparum IC50 ± SD, 3D7; cited from earlier work
[2] = tested on: P. falciparum Dd2 (chloroquine-resistant, mefloquine-resistant); parameters: method as in Lobo et al, 2016; details: ref Lobo et al, 2016, cited from earlier work
[3] = tested on: HepG2-A16 (human hepatoma) cells
Method: (§1) Cytotoxicity was assessed on the mammalian cell lines HepG2-A16 (human hepatoma) and V79 (Chinese hamster lung), using a MTT based assay, as previously described. […] V79 and HepG2 cell lines were incubated for 24 and 48 h, respectively (media changed at 24 h intervals). Absorbance was read at 570 nm on a multi-mode microplate reader (Triad, Dynex Technologies), to produce a log dose-dependence curve. The LD50 value for each compound was estimated by non-linear interpolation of the dose-dependence curve (GraphPad Software).

[4] = tested on: V79 (Chinese hamster lung) cells
Method: as §1

[5] = tested on: P. falciparum IPC5202 ring-stage parasites; test: Ring-stage survival assay (RSA), IPC5202; assay type: cell-based, Plasmodium falciparum; details: Plasmodium falciparum, 6 h; read-out: Ring-stage survival rate (RSA), percentage of viable parasites, IPC5202
Method: Ring-stage survival assays (RSA) were carried out as described in [21], with modifications. Parasite cultures were synchronized once, with 5% sorbitol, and in the next reinvasion cycle, twice, with a 6 h interval. […] Then, plates were centrifuged and supernatant replaced by drug-free culture media. After additional incubation during 66 h for ring-stage, and 42 h for mature-stage, susceptibility was assessed microscopically on Giemsa-stained thin blood smears by estimating the percentage of viable parasites that developed into a second generation of rings or trophozoites.

[6] = tested on: P. falciparum 3D7 mature-stage parasites; details: typical value, strain not stated; cited from earlier work
[7] = tested on: P. falciparum IPC5202 (artemisinin-resistant, K13 R539T); test: SYBR Green I assay, IC50, strain IPC5202; assay type: cell-based, Plasmodium falciparum; details: Plasmodium falciparum, read-out: P. falciparum IC50 ± SD, IPC5202, strain IPC5202
Method: Staging and parasitaemia were determined by light microscopy of Giemsa-stained thin blood smears. Anti-malarial activity was determined using the SYBR Green I assay, as previously described.

[8] = tested on: P. falciparum IPC4912 (artemisinin-resistant, K13 I543T); test: SYBR Green I assay, IC50, strain IPC4912; assay type: cell-based, Plasmodium falciparum; details: Plasmodium falciparum, read-out: P. falciparum IC50 ± SD, IPC4912
Method: Staging and parasitaemia were determined by light microscopy of Giemsa-stained thin blood smears. Anti-malarial activity was determined using the SYBR Green I assay, as previously described. Briefly, early ring stage parasites (> 80% of rings) were challenged with a 1:3 serial dilution of each compound, in concentrations ranging from 10,000–0.169 nM. Fluorescence intensity was measured with a multi-mode microplate reader (Triad, Dynex Technologies), with excitation and emission wavelengths of 485 and 535 nm, respectively, and analysed by nonlinear regression using GraphPad Prism to determine IC50 values.

| Structure (SMILES) | IC50 [1] [nM] | Resistance Index RIa = IC50 (Dd2)/IC50 (3D7) ([2]; Dd2 vs 3D7) | IC50 ([2]; strain Dd2, read-out: P. falciparum IC50 ± SD, Dd2) [nM] | Selectivity index LD50 (HepG2)/IC50 (3D7) ([3]; HepG2 vs 3D7) | Selectivity index LD50 (HepG2)/IC50 (Dd2) ([3]; HepG2 vs Dd2) | Selectivity index LD50 (V79)/IC50 (3D7) ([4]; V79 vs 3D7) | Selectivity index LD50 (V79)/IC50 (Dd2) ([4]; V79 vs Dd2) | viability at 0.7 µM [5] [%] | viable mature-stage parasites allowed [6] [%] | IC50 [7] [nM] | IC50 [8] [nM] | LD50 HepG2 ([3]; human, 48 h) [mM] | LD50 V79 ([4]; Chinese hamster, 24 h) [mM] |
| --- | --- | --- | --- | --- | --- | --- | --- | --- | --- | --- | --- | --- | --- |
| O=C1CCC2(CC1)OOC1(O2)C2CC3CC(C2)CC1C3 (stereo not shown) [LC50] | 14 ± 6.7 | 1.7 | 23.6 ± 8.4 | 71428.6 | 42372.8 | 71428.6 | 42372.8 | – | – | – | – | – | – |
| C[C@H]1[C@@H](O)O[C@@H]2O[C@@]3(C)CC[C@H]4[C@H](C)CC[C@@H]1[C@@]24OO3 [DHA, dihydroartemisinin, reference compound] | – | – | – | – | – | – | – | ≤ 25 | ~1 | 6.2 ± 1.6 | 3.7 ± 2 | 1.0 | > 1 |
